Measurements: patent publication US20250255876A1, “COMPOSITIONS AND METHODS FOR CANCER TREATMENT” (ARIEL SCIENTIFIC INNOVATIONS LTD., priority 2021, published 2025)
pKd: −log10 of the molar value. Entries after “also recorded” stand apart in the source; their conditions may differ.

Key:
H1975 cells = test: Colony survival assay, H1975 cells; format: cell-based; details: for survival rate, combined treatment: H1975, 5 μM cisplatin + 50 μM compound; for toxicity / cell viability, compound alone: H1975, 50 μM compound alone; for sensitization effect to cisplatin: H1975, cisplatin + 50 μM compound; for sensitization to doxorubicin: H1975, doxorubicin + 50 μM compound, 48 h; for cell survival with cisplatin plus inhibitor: H1975, varying cisplatin, 48 hours
Protocol: H1975 cells were plated in 24-well plates at 50,000 cells/well (for 50 µM inhibitor treatment) or 20,000 cells/well (for […] inhibitor treatment). U2OS and A549 cells were plated in 24-well plates at 5000 cells/well. The next day, cells were treated with varying concentrations of cisplatin, either with or without added inhibitor compound. After 48 hours of cisplatin+compound treatment, the cells were washed 3 times with PBS×1 and fresh media applied. After 4 days of recovery, the cells were stained with methylene blue and imaged using a Nikon SMZ25 stereomicroscope. The images were analyzed using the ImageJ (National Institutes of Health) area measurement tool to quantify total colony size in each well.
Cells were plated in 24-well plates at 50,000 cells/well (H1975 line) or 10,000 cells/well (A549 line). The next day, cells were treated with varying concentrations of cisplatin ([…]), with or without 50 μM compound. For the untreated control wells containing only cisplatin, DMSO was applied in place of the compound. After 48 hours of cisplatin+compound treatment, the cells were washed 3 times with PBS and fresh media was applied. After 4 days of recovery, the cells were stained with methylene blue and imaged using a Nikon SMZ25 stereomicroscope. The images were analyzed using the ImageJ (National Institutes of Health) area measurement tool to quantify total colony size in each well.
In order to assess the ability of the selected compounds to sensitize cells during cisplatin treatment, the inventors established a colony survival assay comparing the viability of cells treated with cisplatin alone or with combined treatment of cisplatin and 50 μM compound. For the compound screen, we used two lung cancer cell lines: human non-small lung carcinoma H1975 cells, and epithelial lung adenocarcinoma A549 cells. Out of ten compounds tested, compounds c #2 and c #3 were identified with the most significant sensitization effect and were chosen for future characterization. […] Survival rate was reduced from 90% in 5 μM cisplatin treatment to 50% survival in the combined treatment (FIGS. 11A-B). H1975 cells presented similar behavior following doxorubicin treatment (FIG. 11C). IC50 was calculated using linear regression, presenting a clear reduction of cisplatin's IC50 in all treatments.

MAD2L2 = MAD2L2 (Homo sapiens, UniProt Q9UI95); test: Field Effect Biosensing (FEB) binding assay; parameters: made in house; host or cells: E. coli BL21 Star
MAD2L2, sequence (Q9UI95 whole entry): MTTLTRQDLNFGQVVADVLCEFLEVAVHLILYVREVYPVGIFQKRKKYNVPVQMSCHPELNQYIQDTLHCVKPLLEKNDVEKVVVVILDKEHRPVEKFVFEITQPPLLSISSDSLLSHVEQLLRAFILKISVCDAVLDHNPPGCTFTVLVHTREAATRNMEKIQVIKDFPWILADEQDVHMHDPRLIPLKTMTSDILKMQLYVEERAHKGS
Protocol: E. coli BL21 Star cells were transfected with GST-MAD2L2 vector. Protein induction was done for 4 hours in 30° C., with 1 mM IPTG. Purification was done according to standard GST protocol.
The binding kinetics of MAD2L2 to the small molecule compounds were measured by the Field Effect Biosensing (FEB) Agile R100 label-free binding assay (Nanomedical Diagnostics Inc), following their standard protocol. Briefly, 500 nM of purified MAD2L2 was immobilized on a graphene sensor chip through amine groups. The current baseline level for the chip was recorded in PBS. Next, PBS was aspirated, and the changes in the baseline current induced by 50 μl of 1, 10, 20, 30, 40 and 50 μM droplets of the tested compound were recorded. KD values were calculated by the DataLine 2.0 software by either a Hill equation fit or by using the kon and koff values at a single concentration. The KD values obtained by these two methods were almost identical.
In order to validate that MAD2L2 is a direct target of c #2 and c #3, the inventors tested the compounds' binding kinetics to a recombinant protein by Field Effect Biosensing (FEB) technology. Briefly, purified GST-MAD2L2 was immobilized onto a graphite chip, and the current across the chip is measured to determine the baseline current. […] The Kon and Koff of the interaction were measured over time and were used to calculate the KD. […]

MAD2L2-Rev1 complex = MAD2L2-Rev1 complex (Homo sapiens, UniProt Q9UI95); test: Proximity ligation assay (PLA) of MAD2L2-Rev1 binding; format: cell-based
MAD2L2-Rev1 complex, sequence (Q9UI95 whole entry, one chain of several): as the sequence (Q9UI95 whole entry) above
Protocol: FIG. 16 is a bar graph showing that c #3 reduces Rev1-MAD2L2 interaction. PLA on cells treated with 10 μM cisplatin and 100 μM of c #3 for 24 h. In each analyzed field, cells and foci were counted separately and the ratio of foci/cell was calculated. Each dot represents the average of foci/cell in one analyzed field. SD=1. The P-value was calculated by a one-tailed t-test.
#3 disturbs MAD2L2-Rev1 complex formation. Detection of MAD2L2-Rev1 binding using the proximity ligation assay (PLA), which allows endogenous detection of protein-protein interactions. To enrich for MAD2L2-Rev1 foci, cells were co-treated with 10 μM cisplatin and 100 μM c #3 for 24h. Next, the PLA reaction was performed and foci, representing the MAD2L2-Rev1 complex, were counted.

Compound | survival rate, combined treatment (H1975 cells) | toxicity / cell viability, compound alone (H1975 cells) | toxicity / cell viability, compound alone (H1975 cells; listed as c #2) | sensitization effect to cisplatin (H1975 cells) | sensitization to doxorubicin (H1975 cells) | cell survival with cisplatin plus inhibitor (H1975 cells) | toxicity / cell viability, compound alone (H1975 cells; listed as c #3) | affinity to MAD2L2 compared with c #2 (MAD2L2; from FEB KD values, listed as c #3) | pKd (MAD2L2; purified GST-MAD2L2 immobilized on chip, 1-50 μM compound) | ratio of MAD2L2-Rev1 PLA foci per cell, co-treatment (MAD2L2-Rev1 complex; 10 μM cisplatin + 100 μM c #3, 24 h, compared to cisplatin alone) | MAD2L2-Rev1 complex formation (PLA), c #3 alone (MAD2L2-Rev1 complex; c #3 alone compared to DMSO)
CNc1nc(N2CCCCC2)nc(-n2cnc(SCC(N)=O)n2)n1 [Compound 2] | 50% | no reduction in cell viability | caused no toxicity | approximately twofold sensitization effect | sensitized | reduction in cell survival | – | – | – | – | –
Cc1oc(-c2ccco2)nc1CC(=O)N[C@@H](C(=O)O)c1ccccc1 [Compound 3] | 50% | no reduction in cell viability | – | approximately twofold sensitization effect | sensitized | reduction in cell survival | caused no toxicity | approximately seven-fold higher; also recorded: sevenfold higher | 4.35 | reduced ratio of foci per cell | no effect on complex formation when DNA-damage is not induced
